In data set [1] the test system is Rattus norvegicus. Nature of the data set: Antidiabetic activity against Zucker diabetic fatty rat assessed as blood glucose level at 3 mg/kg after 30 mins (reference value: 270 mg/dL). The format is functional.
The test system of data set [2] is Rattus norvegicus. The experiment in a line: Antidiabetic activity against Zucker diabetic fatty rat assessed as blood glucose level at 3 mg/kg (reference value: 124 mg/dL). It counts as functional.
The test system of data set [3] is Rattus norvegicus. The experiment in a line: Antimetabolic syndrome activity in Zucker diabetic fatty rat assessed as inhibition of fatty liver disease in measured as liver mass at 3 mg/kg (reference value: 23.9 g). The format is functional.
Data set [4] relates to Rattus norvegicus. Nature of the data set: Reduction in Zucker diabetic fatty rat body weight gain at 3 mg/kg/day measured after 6 weeks (reference value: 103 g). The format is functional.
The nature of data set [5]: Cytotoxicity against human HEK293 cells assessed as cell viability at 10 uM measured after 48 hrs by MTS assay relative to vehicle control. The format is cell-based. Conditions: read-out: Activity. Background: Formazan colour is commonly taken as a measure of viable cells.
Data set [6] relates to Rattus norvegicus. Nature of the data set: Reduction in Zucker diabetic fatty rat body weight gain at 3 mg/kg/day measured after 3 weeks. It counts as functional, organism-based.
For data set [7], the target named is T1, Peroxisome proliferator-activated receptor alpha (Homo sapiens, UniProt Q07869).
T1 sequence (Q07869 whole entry): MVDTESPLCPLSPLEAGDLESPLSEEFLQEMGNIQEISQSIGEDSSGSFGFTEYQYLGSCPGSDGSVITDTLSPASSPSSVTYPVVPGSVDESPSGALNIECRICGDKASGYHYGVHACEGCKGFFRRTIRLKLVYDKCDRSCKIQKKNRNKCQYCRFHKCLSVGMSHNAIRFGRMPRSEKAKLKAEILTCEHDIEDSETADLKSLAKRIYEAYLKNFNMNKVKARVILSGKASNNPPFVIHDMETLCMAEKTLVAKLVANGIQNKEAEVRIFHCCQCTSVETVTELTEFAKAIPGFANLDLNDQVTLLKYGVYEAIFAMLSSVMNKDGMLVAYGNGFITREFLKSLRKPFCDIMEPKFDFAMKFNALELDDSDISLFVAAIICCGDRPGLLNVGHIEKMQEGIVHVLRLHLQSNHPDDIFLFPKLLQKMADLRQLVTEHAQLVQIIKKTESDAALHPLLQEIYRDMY
Nature of the data set: Agonist activity at human PPARalpha expressed in HEK293 cells cotransfected with PPREx4-TK-luc assessed as activation of luciferase activity measured after 48 hrs by transactivation assay. It counts as cell-based.

Data set [8] is described as follows: Cytotoxicity against human HEK293 cells assessed as cell viability at 100 uM measured after 48 hrs by MTS assay relative to vehicle control. It counts as cell-based. Conditions: read-out: Activity.
The target of data set [9] is T2, Peroxisome proliferator-activated receptor delta (Homo sapiens, UniProt Q03181).
T2 sequence (Q03181 whole entry): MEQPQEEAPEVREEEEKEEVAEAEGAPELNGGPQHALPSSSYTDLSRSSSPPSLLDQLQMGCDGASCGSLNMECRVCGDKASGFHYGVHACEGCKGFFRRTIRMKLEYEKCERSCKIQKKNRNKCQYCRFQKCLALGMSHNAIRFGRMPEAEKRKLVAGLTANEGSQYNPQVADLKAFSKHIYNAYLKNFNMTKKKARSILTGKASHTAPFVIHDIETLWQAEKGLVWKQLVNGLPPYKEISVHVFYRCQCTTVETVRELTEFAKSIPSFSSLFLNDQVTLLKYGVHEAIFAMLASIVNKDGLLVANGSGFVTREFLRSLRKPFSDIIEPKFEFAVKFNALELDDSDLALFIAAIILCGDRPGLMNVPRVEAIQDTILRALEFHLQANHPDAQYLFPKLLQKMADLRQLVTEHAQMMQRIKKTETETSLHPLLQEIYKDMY
Nature of the data set: Agonist activity at human PPARdelta expressed in HEK293 cells cotransfected with PPREx4-TK-luc assessed as activation of luciferase activity measured after 48 hrs by transactivation assay. It counts as cell-based.

For data set [10], the system named is Rattus norvegicus. The experiment in a line: Antimetabolic syndrome activity in Zucker […] rat assessed as inhibition of fatty liver disease in measured as liver mass at 3 mg/kg (reference value: 8.6 g). The format is functional.
Data set [11] concerns Rattus norvegicus. The experiment in a line: Antidiabetic activity against Zucker diabetic fatty rat assessed as blood glucose level at 3 mg/kg measured after 2 hrs of glucose intake by oral glucose tolerance test (reference value: 185 mg/dL). The format is functional.
For data set [12], the target named is T3, Peroxisome proliferator-activated receptor gamma (Homo sapiens, UniProt P37231).
T3 sequence (P37231 whole entry): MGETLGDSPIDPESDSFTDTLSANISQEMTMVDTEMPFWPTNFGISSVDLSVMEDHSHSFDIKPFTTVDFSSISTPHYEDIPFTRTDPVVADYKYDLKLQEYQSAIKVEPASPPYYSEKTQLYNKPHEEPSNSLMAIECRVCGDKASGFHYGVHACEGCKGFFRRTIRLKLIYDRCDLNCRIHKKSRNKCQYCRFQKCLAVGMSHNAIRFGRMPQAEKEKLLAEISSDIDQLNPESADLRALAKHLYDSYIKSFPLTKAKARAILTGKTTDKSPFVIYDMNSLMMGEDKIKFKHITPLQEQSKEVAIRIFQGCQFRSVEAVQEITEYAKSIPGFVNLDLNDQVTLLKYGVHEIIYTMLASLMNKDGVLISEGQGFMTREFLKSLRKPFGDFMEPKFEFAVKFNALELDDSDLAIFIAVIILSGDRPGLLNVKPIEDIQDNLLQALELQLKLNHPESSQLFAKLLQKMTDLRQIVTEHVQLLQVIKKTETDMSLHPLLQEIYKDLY
Nature of the data set: Agonist activity at human PPARgamma expressed in HEK293 cells cotransfected with PPREx4-TK-luc assessed as activation of luciferase activity measured after 48 hrs by transactivation assay. The format is cell-based.

Drawing on ChEMBL document CHEMBL2331465, “The discovery of novel isoflavone pan peroxisome proliferator-activated receptor agonists” (Bioorg Med Chem, 2013), this text covers Activity, viability and EC50 for five molecules.

pEC50: −log10 of the molar value. Calls of active or inactive are those of the source. The calls are words filed in the database; no cut-off is given here. Bounds are passed on as bounds.

A word on the pEC50: it is the negative decadic logarithm of the EC50, by convention in mol/L.

Regarding `COc1cccc(-c2coc3cc(O)ccc3c2=O)c1`, the Activity in the data set with Rattus norvegicus [1] is 247 mg/dL; in the data set on Rattus norvegicus [2] it was 113 mg/dL; with Rattus norvegicus [3], 19.7 g; with Rattus norvegicus [4], 94 g; in the data set on Rattus norvegicus [10] it was 8.3 g; in the data set on Rattus norvegicus [11], 154 mg/dL. The viability at 48 h, 10 µM in data set [5] was above 90%. Moreover, in the data set on Rattus norvegicus [6], the outcome was Active. The figures for the pEC50 in data set [7] and in data set [9] were 4.48 and 4.91, respectively. In addition, the viability at 48 h, 100 µM in data set [8] was 74%.
With `O=c1c(-c2ccc3c(c2)OCO3)coc2cc(O)ccc12` [PSEUDOBAPTOGENIN], the viability at 48 h, 10 µM in data set [5] is above 90%. Moreover, the pEC50 in data set [9] is 4.65.
Take `O=c1c(-c2ccc(F)cc2)coc2cc(O)ccc12`: in data set [5], the viability at 48 h, 10 µM came out at 78%. The results for the pEC50 in [7] and in data set [9] were 4.64 and 4.61, respectively.
Consider `COc1cc(OC)cc(-c2coc3cc(O)ccc3c2=O)c1`, for which the viability at 48 h, 10 µM in data set [5] was determined as 80%. Besides, the pEC50 in data set [9] was 4.77.
Turning to `CC(C)(Oc1ccc(CCNC(=O)c2ccc(Cl)cc2)cc1)C(=O)O` [BEZAFIBRATE], the viability at 48 h, 10 µM in data set [5] stood at 76%. In addition, the pEC50 in data set [12] was 4.15. Further, in data set [8], the viability at 48 h, 100 µM was found to be 73.7%.
